Data on one compound can be found in patent US12590057B2, “Crystalline complexes” (Theracryf PLC, priority 2020, dated 2026).

Data set [1] can be described thus: Variable humidity XRPD (VH-XRPD) at 25° C. The data set is classed as physicochemical. To be noted: 25° C. An excerpt: Non-ambient conditions: XRPD diffractograms were collected on a PANalytical Empyrean diffractometer using Cu Kα radiation (45 kV, 40 mA) in reflection geometry. The instrument is fitted with an Anton Paar CHC plus^+ stage fitted with graphite/Kapton windows and equipped with air cooling coupled with a proUmid MHG32 Modular Humidity Generator or a low vacuum pump system using an Edwards RV3 pump. A programmable divergence slit (in automatic mode), with a 10 mm fixed incident beam mask, Ni filter and 0.04 rad Soller slits were used on the incident beam. A PIXcel^3D detector, placed on the diffracted beam, was fitted with a programmable anti-scatter slit (in automatic mode) and 0.04 rad Soller slits. The software used for data collection was X'Pert Data Collector and the data analysed and presented using Diffrac Plus EVA or Highscore Plus. For variable humidity (VH-XRPD) experiments the samples were prepared and analysed in an Anton Paar chromed low-profile sample holder with silicon wafer insert. The measurement parameters are as per the standard screening data collection method (detailed above). For all variable humidity XRPD experiments, a pattern was recorded every hour. […] The Form 1 sample was loaded into the VH chamber, which was set to 40% RH and 25° C. and then the RH was decreased in 10% decrements to 10% RH followed by increasing the RH in 10% increments to 90% RH, while maintaining the temperature at 25° C. […] The sample then quickly transitioned from Form 1 at 80% RH to Form 2 at 90% RH. A variable humidity (VH) XRPD experiment was performed to examine how Form 3 exists under different RH conditions. […] The sample was stable as Form 2 for 8 hours at 80% RH. At 90% RH Form 2 existed for 2 hours before the sample deliquesced in the humidity chamber.

Data set [2] in a line: Typical water content of the crystalline forms. The data set is classed as physicochemical. On the procedure:
The water content of a sample can be determined by any suitable means as will be apparent to one of skill in the art. In one embodiment, the water content is determined by Karl-Fischer titration. In one embodiment, the water content is determined by thermogravimetric analysis (TGA). In one embodiment, the water content is determined by gravimetric vapour sorption (GVS). After formation of the crystalline complex according to the invention, the water content may be as low as 1-3% w/w. However, after exposure of the complex to ambient conditions (25° C., 40% RH) the material typically equilibrates (e.g. over a period of 3-7 days) to a water content of up to 5-7% w/w. It has been found, however, that Form 3, once equilibrated to 5-7% w/w water, maintains physical form at 60% RH making it unexpectedly stable over the 0% and 60% humidity range.

For the compound `C[S+]([O-])CCCCN=C=S.OCC1OC2OC3C(CO)OC(OC4C(CO)OC(OC5C(CO)OC(OC6C(CO)OC(OC7C(CO)OC(OC1C(O)C2O)C(O)C7O)C(O)C6O)C(O)C5O)C(O)C4O)C(O)C3O` (centres unmarked) [Form 2], in data set [1], the “Stability at 25° C. (RH range in which the form is stable)” value is given as “Above 80% RH”. In data set [2], the Typical water content is 13-20 % w/w.
